From patent US11964971B2, “Methods and compositions for modulating splicing” (Skyhawk Therapeutics, Inc., priority 2019, dated 2024)

Experiments:
SMN FL and SMN Δ7 = assay: Quantitative splicing assay (SMN) in SMA patient fibroblasts (GM03813); assay type: cell-based; conditions: Homo sapiens, Fibroblast; class symbol; read-out: SMN2 Splicing FL EC50 (nM)*
Protocol: Spinal muscular atrophy (SMA) patient fibroblasts (GM03813, Coriell) are plated in 96-well plates at 50,000 cells/well. […] Treated cells are lysed and cDNA synthesized using the Fast Advanced Cells-to-Ct kit (Thermofisher A35378) according to the manufacturer's instructions. 2 μL of each cDNA are used in qPCR reactions. […] Reactions are run in a Quant Studio 6 qPCR instrument with default settings.

SMN protein = SMN protein assay (MSD) in SMA patient fibroblasts (GM03813); assay type: cell-based, human
Summary of the method: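 Absolute SMN protein measured by Mesoscale Discovery assay in lysates, calibrated per plate with SMN standards (1–19.5 μg/ml). Cells: GM03813 SMA fibroblasts, 7000/well, 48 h compound exposure at doses of 2.5 μM down to 0.6 nM.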

[1] = system: MDR1-MDCK cell monolayers; conditions: dog, MDCK-MDR1, 120 min, 5 μM, pH 7.4
MDR1 = assay: in vitro; conditions: dog; for Papp A→B at 120 min, 5 μM: MDCK-MDR1, pH 7.4, MDCK-MDR1: Papp A-B (10^−6, cm/s); for Papp B→A at 120 min, 5 μM: MDCK-MDR1, pH 7.4, MDCK-MDR1: Papp B-A (10^−6, cm/s)
MDR1 (P-gp) = assay: MDCK-MDR1 permeability assay, blood-brain-barrier penetration potential; conditions: dog, MDCK-MDR1, pH 7.4, MDCK-MDR1 Efflux Ratio

SMILES	EC50 (SMN FL and SMN Δ7) [nM]	EC50 (SMN protein) [nM]	MDCK-MDR1: % Recov A-B (%) [1] [%]	MDCK-MDR1: % Recov B-A (%) [1] [%]	Papp A→B at 120 min, 5 μM (MDR1) [×10⁻⁶ cm/s]	Papp B→A at 120 min, 5 μM (MDR1) [×10⁻⁶ cm/s]	efflux ratio at 120 min, 5 μM (MDR1 (P-gp))
CN(c1cnc(-c2ccc(-c3cnn(C)c3)cc2O)cn1)[C@@H]1C[C@H]2CCC(N2)[C@@H]1F (single isomer, unassigned) [Compound 3E1]	101 to 500	16 to 50	56	66	8.42	22	3
CN(c1cnc(-c2ccc(-c3cnn(C)c3)cc2O)cn1)[C@H]1CC2CC[C@@H](N2)[C@H]1F (single isomer, unassigned) [Compound 3E2]	101 to 500	16 to 50	53	68	9.7	27.1	3
CN(c1cnc(-c2ccc(-c3ccn(C)c(=O)c3)cc2O)cn1)[C@H]1CC2CCC[C@@H](N2)[C@H]1F (single isomer, unassigned) [Compound 5E2]	101 to 500	16 to 50	78	82	1.96	43	22
CN(c1cnc(-c2ccc(-c3cn[nH]c3)cc2O)cn1)[C@H]1CC2CCC[C@@H](N2)[C@H]1F (single isomer, unassigned) [Compound 6E2]	16 to 50	0.01 to 15	70	58	3.67	22.2	6
CN(C)C(=O)c1cc2cc(O)c(-c3cnc(N(C)[C@@H]4C[C@H]5CCC(N5)[C@@H]4F)cn3)cc2o1 (single isomer, unassigned) [Compound 7E1]	501 to 10000	501 to 10000	91	88	1.78	42.4	24
COc1cc(-c2ccc(-c3cnc(N(C)[C@@H]4C[C@@]5(C)CCC[C@](C)(N5)[C@@H]4F)cn3)c(O)c2)cnn1 [Compound 24E1, 2-(5-(((1S,2R,3R,5R)-2-fluoro-1,5-dimethyl-9-azabicyclo[3.3.1]nonan-3-yl)(methyl)amino)pyrazin-2-yl)-5-(6-methoxypyridazin-4-yl)phenol]		101 to 500	40	42	1.93	5.01	3
COc1cc(-c2ccc(-c3cnc(N(C)[C@H]4C[C@]5(C)CCC[C@@](C)(N5)[C@H]4F)cn3)c(O)c2)cnn1 [Compound 24E2, 2-(5-(((1R,2S,3S,5S)-2-fluoro-1,5-dimethyl-9-azabicyclo[3.3.1]nonan-3-yl)(methyl)amino)pyrazin-2-yl)-5-(6-methoxypyridazin-4-yl)phenol]		501 to 10000	37	44	3.01	6.99	2
CN(c1cnc(-c2ccc(-c3cn[nH]c3)cc2O)cn1)[C@@H]1C[C@@]2(C)CC[C@H](N2)[C@@H]1F [Compound 28E4, 2-(5-(((1R,3R,4S,5S)-4-fluoro-1-methyl-8-azabicyclo[3.2.1]octan-3-yl)(methyl)amino)pyrazin-2-yl)-5-(1H-pyrazol-4-yl)phenol]		501 to 10000	68	84	4.42	48.4	11
CN(c1cnc(-c2cc(F)c(-c3ccn(CF)c(=O)c3)cc2O)cn1)[C@@H]1C[C@H]2CC[C@H](N2)[C@@H]1F [Compound 32E1, 4-(2-fluoro-4-(5-(((1S,2S,3R,5R)-2-fluoro-8-azabicyclo[3.2.1]octan-3-yl)(methyl)amino)pyrazin-2-yl)-5-hydroxyphenyl)-1-(fluoromethyl)pyridin-2(1H)-one]		501 to 10000	101	92	3.13	58.7	19
Cn1cc(-c2cc(O)c(-c3cnc(N(C4CC4)[C@@H]4C[C@H]5CC[C@H](N5)[C@@H]4F)cn3)cc2F)cn1 [Compound 35E1, 2-(5-(cyclopropyl((1S,2S,3R,5R)-2-fluoro-8-azabicyclo[3.2.1]octan-3-yl)amino)pyrazin-2-yl)-4-fluoro-5-(1-methyl-1H-pyrazol-4-yl)phenol]		501 to 10000	36	62	3	17.9	6
CN(c1cnc(-c2cc(F)c(-c3cnn(C)c3)cc2O)cn1)[C@@H]1C[C@@]2(C)CC[C@](C)(N2)[C@@H]1F [Compound 58E1, 4-fluoro-2-(5-(((1S,2R,3R,5R)-2-fluoro-1,5-dimethyl-8-azabicyclo[3.2.1]octan-3-yl)(methyl)amino)pyrazin-2-yl)-5-(1-methyl-1H-pyrazol-4-yl)phenol]		101 to 500	37	64	7.67	22.1	3
CNC(=O)/C=C/c1cc(O)c(-c2cnc(N(C)[C@@H]3C[C@@]4(C)CC[C@](C)(N4)[C@@H]3F)cn2)cc1F [Compound 61E1, (E)-3-(2-fluoro-4-(5-(((1S,2R,3R,5R)-2-fluoro-1,5-dimethyl-8-azabicyclo[3.2.1]octan-3-yl)(methyl)amino)pyrazin-2-yl)-5-hydroxyphenyl)-N-methylacrylamide]		16 to 50	86	95	1.97	57.4	29
Cn1cc(-c2ccc(-c3cnc(N(C4CC4)[C@@H]4C[C@@]5(C)CC[C@](C)(N5)[C@@H]4F)cn3)c(O)c2)cn1 [Compound 75E1, 2-(5-(cyclopropyl((1S,2R,3R,5R)-2-fluoro-1,5-dimethyl-8-azabicyclo[3.2.1]octan-3-yl)amino)pyrazin-2-yl)-5-(1-methyl-1H-pyrazol-4-yl)phenol]		501 to 10000	40	70	2.11	16.1	8
Cn1cc(-c2ccc(-c3cnc(N(C4CC4)[C@H]4C[C@]5(C)CC[C@@](C)(N5)[C@H]4F)cn3)c(O)c2)cn1 [Compound 75E2, 2-(5-(cyclopropyl((1R,2S,3S,5S)-2-fluoro-1,5-dimethyl-8-azabicyclo[3.2.1]octan-3-yl)amino)pyrazin-2-yl)-5-(1-methyl-1H-pyrazol-4-yl)phenol]		101 to 500	38	66	2.39	16.9	7
CNC(=O)/C=C/c1cc(O)c(-c2cnc(N(C3CC3)[C@@H]3C[C@@]4(C)CC[C@](C)(N4)[C@@H]3F)cn2)cc1F [Compound 79E1, (E)-3-(4-(5-(cyclopropyl((1S,2R,3R,5R)-2-fluoro-1,5-dimethyl-8-azabicyclo[3.2.1]octan-3-yl)amino)pyrazin-2-yl)-2-fluoro-5-hydroxyphenyl)-N-methylacrylamide]		501 to 10000	84	88	1.67	45.3	27
